In US9067943B2, “[1,2,3]triazolo[4,5-D]pyrimidine derivatives” (priority 2011, dated 2015):
pEC50: −log10 of the molar value. Read-outs that look alike come from different tables or passages of the source.

Columns and labels:
human CB2 receptors = molecular target: T1, human CB2 receptors (Homo sapiens, UniProt P34972); assay: cAMP assay; type: cell-based
T1 construct: expressed in transfected cells; host or cells: CHO cells
How it was run: (§1)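 CHO cells expressing human CB1 or CB2 were preincubated 30 min at 30 °C in Krebs Ringer bicarbonate buffer with 1 mM IBMX, then exposed to compounds for 30 min at 30 °C. cAMP was measured by time-resolved FRET against a cAMP standard curve, and EC50 values were derived.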

human CB1 receptors = molecular target: T2, human CB1 receptors (Homo sapiens, UniProt P21554); assay: cAMP assay; type: cell-based
T2 construct: expressed in transfected cells; host or cells: CHO cells
How it was run: as §1

[1] = functional cAMP assay, CHO cells expressing human CB2, read-out: human CB2 EC50

T1 sequence (P34972 whole entry): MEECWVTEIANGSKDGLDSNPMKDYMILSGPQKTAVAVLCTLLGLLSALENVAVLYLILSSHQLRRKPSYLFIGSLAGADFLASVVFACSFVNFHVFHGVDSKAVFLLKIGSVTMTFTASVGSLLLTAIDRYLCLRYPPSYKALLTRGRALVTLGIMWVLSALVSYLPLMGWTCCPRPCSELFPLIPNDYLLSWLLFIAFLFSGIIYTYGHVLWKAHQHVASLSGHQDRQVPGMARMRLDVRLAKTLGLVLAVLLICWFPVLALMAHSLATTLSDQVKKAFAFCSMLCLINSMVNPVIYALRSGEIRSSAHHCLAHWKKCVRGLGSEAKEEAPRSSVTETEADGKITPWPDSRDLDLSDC
T2 sequence (P21554 whole entry): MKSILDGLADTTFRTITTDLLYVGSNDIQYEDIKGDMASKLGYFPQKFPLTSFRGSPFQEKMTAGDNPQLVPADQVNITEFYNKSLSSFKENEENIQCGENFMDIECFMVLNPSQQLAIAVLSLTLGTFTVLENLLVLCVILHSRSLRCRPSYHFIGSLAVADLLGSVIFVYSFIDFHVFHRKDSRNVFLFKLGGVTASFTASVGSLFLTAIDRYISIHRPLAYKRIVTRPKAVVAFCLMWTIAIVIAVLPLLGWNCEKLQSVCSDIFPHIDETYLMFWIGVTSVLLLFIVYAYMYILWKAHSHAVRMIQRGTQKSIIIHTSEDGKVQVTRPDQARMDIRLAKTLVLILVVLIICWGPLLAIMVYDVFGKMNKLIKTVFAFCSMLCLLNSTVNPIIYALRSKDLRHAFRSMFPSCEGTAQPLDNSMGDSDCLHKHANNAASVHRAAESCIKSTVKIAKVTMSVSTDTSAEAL

SMILES | pEC50 (human CB2 receptors) | pEC50 (human CB1 receptors) | pEC50 (human CB2 receptors; [1])
C[C@H](Oc1nc(N2CCC(F)(F)C2)c2nn(Cc3ccccc3S(C)(=O)=O)nc2n1)C(F)(F)F [Example 116, 7-(3,3-Difluoro-pyrrolidin-1-yl)-2-(2-methanesulfonyl-benzyl)-5-((S)-2,2,2-trifluoro-1-methyl-ethoxy)-2H-[1,2,3]triazolo[4,5-d]pyrimidine] | 7.64 | < 5.00 | –
CC(C)Oc1nc(N2CC[C@H](O)C2)c2nn(Cc3ccccc3Cl)nc2n1 [Example 111, (S)-1-[2-(2-Chloro-benzyl)-5-isopropoxy-2H-[1,2,3]triazolo[4,5-d]pyrimidin-7-yl]-pyrrolidin-3-ol] | – | < 5.00 | 6.58
C[C@H](Oc1nc(N2CCC(F)(F)C2)c2nn(CCC(F)(F)F)nc2n1)C(F)(F)F [Example 122, 7-(3,3-Difluoro-pyrrolidin-1-yl)-5-((S)-2,2,2-trifluoro-1-methyl-ethoxy)-2-(3,3,3-trifluoro-propyl)-2H-[1,2,3]triazolo[4,5-d]pyrimidine] | 8.08 | < 5.00 | –
CC(C)(C)c1nc(N2CC[C@H](O)C2)c2nn(Cc3cccnc3Cl)nc2n1 [Example 77, (S)-1-[5-tert-Butyl-2-(2-chloro-pyridin-3-ylmethyl)-2H-[1,2,3]triazolo[4,5-d]pyrimidin-7-yl]-pyrrolidin-3-ol] | 7.81 | < 5.00 | –
CC(C)(C)Nc1nc(N2CCC(F)(F)C2)c2nn(Cc3ccccc3C(F)(F)F)nc2n1 [Example 136, tert-Butyl-[7-(3,3-difluoro-pyrrolidin-1-yl)-2-(2-trifluoromethyl-benzyl)-2H-[1,2,3]triazolo[4,5-d]pyrimidin-5-yl]-amine] | 7.46 | < 5.00 | –
COc1ccccc1Cn1nc2nc(C(C)(C)C)nc(N3CCC(F)(F)C3)c2n1 [Example 23, 5-tert-Butyl-7-(3,3-difluoro-pyrrolidin-1-yl)-2-(2-methoxy-benzyl)-2H-[1,2,3]triazolo[4,5-d]pyrimidine] | 9.70 | 7.07 | –
CC(C)(C)c1nc(N2CCC(F)(F)C2)c2nn(Cc3ccc(Cl)cc3)nc2n1 [Example 8, 5-tert-Butyl-2-(4-chloro-benzyl)-7-(3,3-difluoro-pyrrolidin-1-yl)-2H-[1,2,3]triazolo[4,5-d]pyrimidine] | 8.19 | < 5.00 | –
CC(C)(C)c1nc(N2CCC(F)(F)C2)c2nn(CCc3ccc(Cl)cc3)nc2n1 [Example 43, 5-tert-Butyl-2-[2-(4-chloro-phenyl)-ethyl]-7-(3,3-difluoro-pyrrolidin-1-yl)-2H-[1,2,3]triazolo[4,5-d]pyrimidine] | 7.66 | < 5.00 | –
Cc1noc(Cn2nc3nc(C(C)(C)C)nc(N4CCC(F)(F)C4)c3n2)n1 [Example 40, 5-tert-Butyl-7-(3,3-difluoro-pyrrolidin-1-yl)-2-(3-methyl-[1,2,4]oxadiazol-5-ylmethyl)-2H-[1,2,3]triazolo[4,5-d]pyrimidine] | 8.37 | < 5.00 | –
Cc1nonc1Cn1nc2nc(C(C)(C)C)nc(N3CC[C@@](C)(O)C3)c2n1 [Example 131-b, (R)-1-[5-tert-Butyl-2-(4-methyl-furazan-3-ylmethyl)-2H-[1,2,3]triazolo[4,5-d]pyrimidin-7-yl]-3-methyl-pyrrolidin-3-ol] | 7.21 | < 5.00 | –
CC(C)(C)c1nc(N2CCC(F)(F)C2)c2nn(Cc3c(Cl)cccc3Cl)nc2n1 [Example 12, 5-tert-Butyl-2-(2,6-dichloro-benzyl)-7-(3,3-difluoro-pyrrolidin-1-yl)-2H-[1,2,3]triazolo[4,5-d]pyrimidine] | 8.82 | < 5.00 | –
CC(C)(C)c1nc(N2CC[C@H](O)C2)c2nn(Cc3ccccc3C(F)(F)F)nc2n1 [Example 79, (S)-1-[5-tert-Butyl-2-(2-trifluoromethyl-benzyl)-2H-[1,2,3]triazolo[4,5-d]pyrimidin-7-yl]-pyrrolidin-3-ol] | 9.40 | < 5.00 | –
CC(C)(C)c1nc(N2CCC(F)(F)C2)c2nn(Cc3ccc(Cl)cc3Cl)nc2n1 [Example 10, 5-tert-Butyl-2-(2,4-dichloro-benzyl)-7-(3,3-difluoro-pyrrolidin-1-yl)-2H-[1,2,3]triazolo[4,5-d]pyrimidine] | 8.39 | < 5.00 | –
CC(C)(C)c1nc(N2CCC(F)(F)C2)c2nn(Cc3c(F)ccc(F)c3Cl)nc2n1 [Example 20, 5-tert-Butyl-2-(2-chloro-3,6-difluoro-benzyl)-7-(3,3-difluoro-pyrrolidin-1-yl)-2H-[1,2,3]triazolo[4,5-d]pyrimidine] | 9.70 | 7.47 | –
CC(C)(C)c1nc(N2CC[C@@](C)(O)C2)c2nn(Cc3ncccc3Cl)nc2n1 [Example 127-b, (R)-1-[5-tert-Butyl-2-(3-chloro-pyridin-2-ylmethyl)-2H-[1,2,3]triazolo[4,5-d]pyrimidin-7-yl]-3-methyl-pyrrolidin-3-ol] | 7.92 | 6.22 | –
CC(C)(C)c1nc(N2CC[C@H](O)C2)c2nn(Cc3cccnc3Nc3ccc([N+](=O)[O-])c4nonc34)nc2n1 [Example 93, (S)-1-{5-tert-Butyl-2-[2-(7-nitro-benzo[1,2,5]oxadiazol-4-ylamino)-pyridin-3-ylmethyl]-2H-[1,2,3]triazolo[4,5-d]pyrimidin-7-yl}-pyrrolidin-3-ol] | – | < 5.00 | 6.57
Cc1nnc(Cn2nc3nc(C(C)(C)C)nc(N4CC(F)(F)C(F)(F)C4)c3n2)o1 [Example 101, 5-tert-Butyl-2-(5-methyl-[1,3,4]oxadiazol-2-ylmethyl)-7-(3,3,4,4-tetrafluoro-pyrrolidin-1-yl)-2H-[1,2,3]triazolo[4,5-d]pyrimidine] | 7.80 | < 5.00 | –
Cc1nonc1Cn1nc2nc(C(C)(C)C)nc(N3CC[C@H](O)C3)c2n1 [Example 73, (S)-1-[5-tert-Butyl-2-(4-methyl-furazan-3-ylmethyl)-2H-[1,2,3]triazolo[4,5-d]pyrimidin-7-yl]-pyrrolidin-3-ol] | 8.15 | < 5.00 | –
CC(C)(C)c1nc(N2CCC(F)(F)C2)c2nn(CCc3ccncc3)nc2n1 [Example 59, 5-tert-Butyl-7-(3,3-difluoro-pyrrolidin-1-yl)-2-(2-pyridin-4-yl-ethyl)-2H-[1,2,3]triazolo[4,5-d]pyrimidine] | 8.46 | < 5.00 | –
COCCn1nc2nc(C(C)(C)C)nc(N3CCC(F)(F)C3)c2n1 [Example 4, 5-tert-Butyl-7-(3,3-difluoro-pyrrolidin-1-yl)-2-(2-methoxy-ethyl)-2H-[1,2,3]triazolo[4,5-d]pyrimidine] | 8.10 | < 5.00 | –
C[C@H](c1ccccc1Cl)n1nc2nc(C(C)(C)C)nc(N3CCC(F)(F)C3)c2n1 [Example 28, 5-tert-Butyl-2-[(R)-1-(2-chloro-phenyl)-ethyl]-7-(3,3-difluoro-pyrrolidin-1-yl)-2H-[1,2,3]triazolo[4,5-d]pyrimidine] | 9.70 | 6.87 | –
Cc1noc(Cn2nc3nc(C(C)(C)C)nc(N4CC[C@](C)(O)C4)c3n2)n1 [Example 129-a, (S)-1-[5-tert-Butyl-2-(3-methyl-[1,2,4]oxadiazol-5-ylmethyl)-2H-[1,2,3]triazolo[4,5-d]pyrimidin-7-yl]-3-methyl-pyrrolidin-3-ol] | – | < 5.00 | 6.71
Cn1nnnc1Cn1nc2nc(C(C)(C)C)nc(N3CC(F)(F)C(F)(F)C3)c2n1 [Example 102, 5-tert-Butyl-2-(1-methyl-1H-tetrazol-5-ylmethyl)-7-(3,3,4,4-tetrafluoro-pyrrolidin-1-yl)-2H-[1,2,3]triazolo[4,5-d]pyrimidine] | 8.20 | < 5.00 | –
Cc1nc(Cn2nc3nc(C(C)(C)C)nc(N4CCC(F)(F)C4)c3n2)no1 [Example 67, 5-tert-Butyl-7-(3,3-difluoro-pyrrolidin-1-yl)-2-(5-methyl-[1,2,4]oxadiazol-3-ylmethyl)-2H-[1,2,3]triazolo[4,5-d]pyrimidine] | 8.89 | 5.79 | –
CN(C)c1c(Cl)cncc1Cn1nc2nc(C(C)(C)C)nc(N3CCC(F)(F)C3)c2n1 [Example 71, {3-[5-tert-Butyl-7-(3,3-difluoro-pyrrolidin-1-yl)-[1,2,3]triazolo[4,5-d]pyrimidin-2-ylmethyl]-5-chloro-pyridin-4-yl}-dimethyl-amine] | 8.85 | 6.98 | –
CC(C)(C)c1nc(N2CCC(F)(F)C2)c2nn(C3CCS(=O)(=O)C3)nc2n1 (stereo not drawn) [Example 63, 5-tert-Butyl-7-(3,3-difluoro-pyrrolidin-1-yl)-2-(1,1-dioxo-tetrahydro-1λ6-thiophen-3-yl)-2H-[1,2,3]triazolo[4,5-d]pyrimidine] | 8.40 | < 5.00 | –
CC(C)(C)c1nc(N2CC[C@](C)(O)C2)c2nn(Cc3nnnn3C3CC3)nc2n1 [Example 133-a, (S)-1-[5-tert-Butyl-2-(1-cyclopropyl-1H-tetrazol-5-ylmethyl)-2H-[1,2,3]triazolo[4,5-d]pyrimidin-7-yl]-3-methyl-pyrrolidin-3-ol] | – | < 5.00 | 6.90
CC(C)(C)c1nc(N2CC[C@](C)(O)C2)c2nn(Cc3ccccc3Cl)nc2n1 [Example 124-a, (S)-1-[5-tert-Butyl-2-(2-chloro-benzyl)-2H-[1,2,3]triazolo[4,5-d]pyrimidin-7-yl]-3-methyl-pyrrolidin-3-ol] | 8.60 | < 5.00 | –
CC(C)(C)c1nc(N2CCC(F)(F)C2)c2nn(Cc3c(Cl)ccc(Cl)c3Cl)nc2n1 [Example 55, 5-tert-Butyl-7-(3,3-difluoro-pyrrolidin-1-yl)-2-(2,3,6-trichloro-benzyl)-2H-[1,2,3]triazolo[4,5-d]pyrimidine] | 8.06 | < 5.00 | –
CC(C)(C)c1nc(N2CCC(F)(F)C2)c2nn(Cc3nnnn3C3CC3)nc2n1 [Example 92, 5-tert-Butyl-2-(1-cyclopropyl-1H-tetrazol-5-ylmethyl)-7-(3,3-difluoro-pyrrolidin-1-yl)-2H-[1,2,3]triazolo[4,5-d]pyrimidine] | 8.30 | 5.80 | –
